Assay [1] has as its target T1, 5α-reductase type 1 (5α-R1) (Homo sapiens, UniProt P18405).
T1 construct: gene SRD5A1
T1 sequence (P18405 1-259): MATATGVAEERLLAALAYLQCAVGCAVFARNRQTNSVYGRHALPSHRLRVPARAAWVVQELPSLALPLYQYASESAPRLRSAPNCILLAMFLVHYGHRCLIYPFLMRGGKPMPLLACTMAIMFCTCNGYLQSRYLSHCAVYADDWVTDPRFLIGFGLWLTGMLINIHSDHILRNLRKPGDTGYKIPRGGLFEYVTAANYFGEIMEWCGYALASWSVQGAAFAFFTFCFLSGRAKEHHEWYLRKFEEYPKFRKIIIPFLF
Kind of assay: HHDPC cell-based assay of testosterone to […]α-DHT conversion (endogenous […]α-R1), non-radioactive TLC detection.

Assay [2] concerns the target T1, 5α-reductase type 1 (5α-R1). Description: HHDPC cell-based assay of testosterone to […]α-DHT conversion (endogenous […]α-R1), TLC detection; positive control.

The record followed here is PMC6271945, “Avicequinone C Isolated from Avicennia marina Exhibits 5α-Reductase-Type 1 Inhibitory Activity Using an Androgenic Alopecia Relevant Cell-Based Assay System” (Molecules, 2014).

As usually defined, the IC50 is the point on the concentration scale where inhibition reaches its midpoint.

Regarding `CC(C)(O)c1cc2c(o1)C(=O)c1ccccc1C2=O` [G1, naphtho 2'-(1-hydroxy-1-methylethyl)[2,3-β]furan-1,4-dione], in assay [1], the half-inhibitory concentration (IC50) is 38.8 ± 1.29 µM. For `C[C@]12C=CC(=O)N[C@@H]1CC[C@@H]1[C@@H]2CC[C@]2(C)[C@@H](C(=O)Nc3cc(C(F)(F)F)ccc3C(F)(F)F)CC[C@@H]12` [dutasteride], the “HHDPC cell-based assay of testosterone to 5α-DHT conversion (endogenous 5α-R1),” value in assay [2] was “complete inhibition at 0.1 and 0.01 µg/mL; 16.5% at 0.001”.
